For experiment [1], the system named is gastric acid secretion. Put plainly: Acute Gastric Fistula Rat Test (inhibition of gastric acid secretion, Total Acid Output). The following applies: 1 h, @ 20 mg/kg i.d. (intraduodenal), collection at one hour, read-out: % Inhibition of TAO (Total Acid Output). The class given is in vivo, Female Sprague-Dawley rats. The method, then:
The compounds of the invention are useful for inhibition of gastric acid secretion as measured by the following test. Female Sprague-Dawley rats are fasted twenty-four hours before testing and are given water ad libidum while being kept in individual cages. On the day of testing, the rats are weighed and are selected so that the rats in each test weigh within a range of ±20 grams.
Surgery is carried out under light ether anesthesia. As soon as the rat is anesthetized its teeth are removed and a mid-line incision is made on the abdomen about 11/2 inches in length and the stomach and duodenum are exposed. If at this point the stomach is filled with food or fecal material, the rat is not used. If the condition of the stomach is acceptable, a purse string stitch is placed on the fundic portion of the stomach with a suture, taking care not to pierce any blood vessels in the area. A small nick is then made into the stomach in the center of the purse string, and a cannula, consisting of a small vinyl tube with a flange on one end, is put into the stomach, and the purse string stitch is closed tightly around the flange. The test compound is administered intraduodonally (i.d.) immediately after surgery in a volume of 0.5 ml/100 grams rat. Control rats receive the test vehicle, 0.5% aqueous methyl cellulose.
After the surgery and after administration of the test compound, the abdominal wall and skin are closed simultaneously with three or four 10 mm wound clips and a collecting tube is placed on the cannula. Each rat is then placed in a box in which a longitudinal slit has been made to allow the cannula to hang freely and to allow the rat to move about unencumbered. After the rat has been allowed to stabilize for thirty minutes, the collection tube on the cannula is discarded and replaced with a clean tube to receive the gastric juice. Collections are made at one hour.
The sample of gastric contents collected is drained into a centrifuge tube and centrifuged to pack down the sediment. The volume is read and a 1 ml aliquot of the supernatant is put into a beaker containing 10 ml distilled water and is titrated to pH 7 using 0.01 N sodium hydroxide. Results are determined for Volume, Titratable Acid and Total Acid Output, where Volume equals total ml of gastric juice minus sediment; Titratable Acid (meq/1) equals amount of 0.01 N sodium hydroxide needed to titrate the acid to pH 7; and Total Acid Output equals Titratable Acid times Volume. Results are reported as % inhibition of Total Acid Output (TAO) for a dose of 20 mg/kg i.d. of the compound of formula (I) or (II). Particularly useful are compounds having significant inhibition of TAO at a dose of 20 mg/kg.

Experiment [2] relates to depressant effects of tetrabenazine (TBZ). Nature of the experiment: tetrabenazine (TBZ) antagonism assay for antidepressant agents. It counts as in vivo. The following applies: Mus musculus, ip, 0.5 h, mice, test compound i.p. 30 minutes prior to 32 mg/kg i.p. TBZ. The method, then:
This is the "classical" tetrabenazine antagonism assay described in U.S. Pat. No. 3,787,577. Mice are injected with a test compound 30 minutes prior to the injection of 32 mg/kg i.p. of TBZ, a drug which decreases normal exploratory activity and induces ptosis. After 30 minutes, the mice are tested for two parameters: the presence of normal exploratory activity (EA) and reversal of ptosis (Pt). A control group of mice is given only 32 mg/kg i.p. of TBZ.

The mark [3] stands for this setting: normal exploratory activity, read-out: TBZ ED50 EA (exploratory activity).
Where [4] appears, read: reversal of ptosis, read-out: TBZ ED50 Pt (reversal of ptosis).

Structures can show the parent of a compound that is named as a salt. Where two headings read alike, the source gives them in different places.

By ED50 is commonly meant the midpoint of the dose-response relation.

Take `Cn1ccc2c1[C@H](c1ccccc1)CN1CCC[C@@H]21` (relative stereo) [17 (1st), 4,5,7,8,9,9a-alpha-Hexahydro-3-methyl-4-alpha-phenyl-3H-pyrrolo[2,3-g]indolizine]: in experiment [1], the inhibition in vivo at 20 mg/kg amounted to 90%.

For `Cn1ccc2c1[C@H](c1ccccc1)CN1CCC[C@H]21` (relative stereo) [17 (2nd), 4,5,7,8,9,9a-beta-Hexahydro-3-methyl-4-alpha-phenyl-3H-pyrrolo[2,3-g]indolizine], the ED50 in experiment [2] (setting [3]) was 2.4 mg/kg; in experiment [2] (setting [4]), around 0.75 mg/kg. The inhibition in vivo at 20 mg/kg in experiment [1] is 88%.

On to `c1ccc([C@@H]2CN3CCC[C@H]3c3ccsc32)cc1` (relative stereo) [19 (1st), 4,5,7,8,9,9a-alpha-Hexahydro-4-alpha-phenylthieno[2,3-g]indolizine], for which, in experiment [1], the inhibition in vivo at 20 mg/kg was found to be 98%.

Regarding `c1ccc([C@@H]2CN3CCC[C@@H]3c3ccsc32)cc1` (relative stereo) [19 (2nd), 4,5,7,8,9,9a-beta-hexahydro-4-alpha-phenylthieno[2,3-g]indolizine], in experiment [1], the inhibition in vivo at 20 mg/kg amounted to 98%.

Consider `c1ccc([C@@H]2CN3CCC[C@H]3c3sccc32)cc1` (relative stereo) [19 (3rd), 4,5,7,8,9,9a-alpha-hexahydro-4-alpha-phenylthieno[3,2-g]indolizine], for which the inhibition in vivo at 20 mg/kg in experiment [1] amounted to 88%.

Take `c1csc([C@@H]2CN3CCC[C@H]3c3ccsc32)c1` (relative stereo) [20 (1st), 4,5,7,8,9,9a-alpha-Hexahydro-4-alpha-(2-thienyl)thieno[2,3-g]indolizine]: the inhibition in vivo at 20 mg/kg in experiment [1] was determined as 47%.

As for `c1csc([C@@H]2CN3CCC[C@@H]3c3ccsc32)c1` (relative stereo) [20 (2nd), 4,5,7,8,9,9a-beta-hexahydro-4-alpha-(2-thienyl)thieno[2,3-g]indolizine], the ED50 in experiment [2] (setting [3]) was around 24 mg/kg; in experiment [2] (setting [4]), around 30 mg/kg. Further, the inhibition in vivo at 20 mg/kg in experiment [1] was 41%.

Regarding `C[C@@]12CCCN1C[C@@H](c1ccccc1)c1sccc12` (relative stereo) [Example 18, 4,5,7,8,9,9a-Hexahydro-9a-alpha-methyl-4-alpha-phenylthieno-[2,3-g]indolizine perchlorate (1:1)], the inhibition in vivo at 20 mg/kg in experiment [1] was determined as 100%.

Consider `CC12CCCN1CCc1c2ccn1Cc1ccccc1Cl` (stereo not shown) [Example 4, 3-(2-Chlorobenzyl)-4,5,7,8,9,9a-hexahydro-9a-methyl-3H-pyrrolo[2,3-g]indolizine], for which the inhibition in vivo at 20 mg/kg in experiment [1] is 78%.

On to `CC12CCCN1CCc1[nH]ccc12` (stereo not shown) [Example 5, 4,5,7,8,9,9a-Hexahydro-9a-methyl-3H-pyrrolo[2,3-g]-indolizine E-(2-)butenedioate(1:1)], for which the inhibition in vivo at 20 mg/kg in experiment [1] was found to be 66%.

For the molecule `Cn1ccc2c1CCN1CCCC21c1ccccc1` (stereo not shown) [Example 7, 4,5,7,8,9,9a-Hexahydro-3-methyl-9a-phenyl-3H-pyrrolo[2,3-g]indolizine], the inhibition in vivo at 20 mg/kg in experiment [1] turned out to be 86%.

Take `CC12CCCN1CCc1c2ccn1-c1ccccc1` (stereo not shown) [Example 10, 4,5,7,8,9,9a-Hexahydro-9a-methyl-3-phenyl-3H-pyrrolo[2,3-g]indolizine]: the inhibition in vivo at 20 mg/kg in experiment [1] came out at 82%.

Turning to `Cn1ccc2c1CCN1C(c3ccc(Cl)cc3)CCC21C` (stereo not shown) [Example 12, 7-(4-Chlorophenyl)-4,5,7,8,9,9a-hexahydro-3,9a-dimethyl-3H-pyrrolo[2,3-g]indolizine (E)-2-butenedioate (1:7) hydrate (1:2)], the inhibition in vivo at 20 mg/kg in experiment [1] was 37%.

For `Cn1ccc2c1CCN1CCCC21C` (stereo not shown) [Example 13, 3,9a-Dimethyl-4,5,7,8,9,9a-hexahydro-3H-pyrrolo[2,3-]indolizine hydrochloride], in experiment [1], the inhibition in vivo at 20 mg/kg was 74%.

For the molecule `Cn1ccc2c1C1(C)CCCN1CC2` (stereo not shown) [Example 16, 1,9a-Dimethyl-4,5,7,8,9,9a-hexahydro-1H-pyrrolo[3,2-g]indolizine cyclohexanesulfamate], in experiment [1], the inhibition in vivo at 20 mg/kg was determined as 86%.

Values taken from patent US4572911A, “Hexahydroindolinzine compounds, pharmaceutical compositions and methods and intermediates” (priority 1984, dated 1986).
